Marks after values point to notes of the source that are not given here.
Assays:
Bacillus Substilis = conditions: against Bacillus Substilis; cited from earlier work
force-induced pain = assay: Analgesy-meter force-induced pain in rats; type: in vivo, rat; conditions: mean ± SEM, six rats
Protocol: Analgesy-meter induced pain: The analgesic effect of the powder was tested in rat of either sex, using an Ugo Basile Analgesy meter (No. 32725) (21025 Comerio-[…], Italy). This method involves the application of force to the paw of the rat using the Analgesy-meter, which exerts a force that increases at a constant rate. The rat was gently placed between the plinth and plunger. The instrument was switched on and a constant motor rate was used to drive the plunger on to the paw of the rat. When the rat struggles, the instrument is switched off and the force at which the animal felt pain was read on a scale calibrated in grams ×10 by a pointers. The pre-treatment and the after treatment weight causing pain was determined for each rat. […]

[1] = test system: λ carrageenin induced edema; assay: λ carrageenin induced paw edema in rats; type: in vivo, rat
Protocol: Carrageenin induced paw edema: Rats were injected with 0.1 ml of 1% λ carrageenin (St.-Louis, Mo.) into the subplantar side of the left hind paw. The paw was marked with ink at the level of the lateral malleolus and dipped in perspex cell up to this mark. The paw volume was measured with an Ugo Basile Plethysmometer (No: 61402) (7140 Comerio-varese, Italy) immediately and 3 h after injecting the λ carrageenin suspension. […] Significant reductions in the paw volume compared to vehicle treated control animals were considered as anti-inflammatory response. Percentage inhibition of oedema was calculated as follows: % Inhibition=(1−VT/VC)×100
VT=Paw volume in drug treated rats, VC=Paw volume in control group of rats.

interleukin-1 production = conditions: Chem. Pharm. Bull. 1992, 40,2041; cited from earlier work

Compound: C[C@@H]1O[C@@H](Oc2ccc(CN=C=S)cc2)[C@H](O)[C@H](O)[C@H]1O [4-(α-L Rhamnosyloxy benzylisothiocynate]
- Antibacterial activity (Bacillus Substilis): exhibited antibacterial activity

Compound: CC(C)Cc1ccc(C(C)C(=O)O)cc1 (stereo not drawn) [Ibuprofen]
- Weight causing pain (g) After Administration (force-induced pain; 100 mg/kg): 161.1 ± 7.9^b g
- Weight causing pain (g) Before Administration (force-induced pain; pre-treatment value of 100 mg/kg group): 84.7 ± 5.7 g

Compound: COc1ccc2c(c1)c(CC(=O)O)c(C)n2C(=O)c1ccc(Cl)cc1 [Indomethacin]
- Paw volume (ml) at 3h λ carrageenin ([1]; 100 mg/kg, mean ± SEM, six rats): 0.15 ± 0.02 mL
- inhibition at 100 mg/kg ([1]; Rattus norvegicus, 3 h after λ carrageenin, vs control): 84.7%

Compound: Pongapipnone A
- Inhibition of interleukin-1 production (interleukin-1 production): inhibited interleukin-1 production
